Assay results as given in ChEMBL document CHEMBL5727499, “Derivatives and methods of treating hepatitis B infections” (2020).
Entries after “also recorded” stand apart in the source; their conditions may differ.

Experiment: HBV Replication Inhibition Assay: HBV replication inhibition by the compounds of this invention could be determined in cells infected or transfected with HBV, or cells with stably integrated HBV, such as HepG2.2.15 cells (Sells et al. 1987). In this example, HepG2.2.15 cells were maintained in cell culture medium containing 10% fetal bovine serum (FBS), Geneticin, L-glutamine, penicillin and streptomycin. HepG2.2.15 cells could be seeded in 96-well plates at a density of 40,000 cells/well and be treated with serially diluted compounds at a final DMSO concentration of 0.5% either alone or in combination by adding drugs in a checker box format. Cells were incubated with compounds for three days, after which medium was removed and fresh medium containing compounds was added to cells and incubated for another three days. At day 6, supernatant was removed and treated with DNase at 37° C. for 60 minutes, followed by enzyme inactivation at 75° C. for 15 minutes. Encapsidated HBV DNA was released from the virions and covalently linked HBV polymerase by incubating in lysis buffer (Affymetrix QS0010) containing 2.5 μg proteinase K at 50° C. for 40 minutes. HBV DNA was denatured by addition of 0.2 M NaOH and detected using a branched DNA (BDNA) QuantiGene assay kit according to manufacturer recommendation (Affymetrix). HBV DNA levels could also be quantified using qPCR, based on amplification of encapsidated HBV DNA extraction with QuickExtraction Solution (Epicentre Biotechnologies) and amplification of HBV DNA using HBV specific PCR probes that can hybridize to HBV DNA and a fluorescently labeled probe for quantitation. In addition, cell viability of HepG2.2.15 cells incubated with test compounds alone or in combination was determined by using CellTitre-Glo reagent according to the manufacturer protocol (Promega). The mean background signal from wells containing only culture medium was subtracted from all other samples, and percent inhibition at each compound concentration was calculated by normalizing to signals from HepG2.2.15 cells treated with 0.5% DMSO using equation E1.% inhibition=(DMSOave−Xi)/DMSOave×100% E1:where DMSOave is the mean signal calculated from the wells that were treated with DMSO control (0% inhibition control) and Xi is the signal measured from the individual wells. EC50 values, effective concentrations that achieved 50% inhibitory effect, were determined by non-linear fitting using Graphpad Prism software (San Diego, Calif.) and equation E2Y=Y min+(Y max−Y min)/(1+10(Log EC50−X)×HillSlope) E2:where Y represents percent inhibition values and X represents the logarithm of compound concentrations.

| SMILES | EC50 (HepG2.2.15) | EC50 |
| --- | --- | --- |
| O=C(Nc1cccc(Br)c1)N1CCc2[nH]nc(C34CCCC3C4)c2C1 (stereo not drawn) | in the range around 55 nM |  |
| N#Cc1cccc(NC(=O)N2CCc3[nH]nc(C45CCCC4C5)c3C2)c1F (stereo not drawn) | in the range around 55 nM |  |
| O=C(Nc1cccc(Cl)c1)N1CCc2[nH]nc(O)c2C1 | > 10000 nM |  |
| O=C(Nc1cccc(Br)c1)N1CCc2[nH]nc(C3CCC3)c2C1 | in the range around 55 nM |  |
| CC1Cc2[nH]nc(C3CCCO3)c2CN1C(=O)Nc1cccc(Cl)c1 (stereo not drawn) | in the range around 55 nM |  |
| O=C(Nc1ccnc(Cl)c1F)N1CCc2[nH]nc(C34CCCC3C4)c2C1 (stereo not drawn) | in the range around 55 nM |  |
| O=C(Nc1ccnc(Cl)c1F)N1CCc2[nH]nc(C3CCC3)c2C1 | in the range around 300 nM |  |
| CC1Cc2[nH]nc(C3CCC3)c2CN1C(=O)Nc1ccc(F)c(F)c1 (stereo not drawn) | in the range around 55 nM |  |
| O=C(Nc1ccc(F)c(Br)c1)N1CCc2[nH]nc(C34CCCC3C4)c2C1 (stereo not drawn) | in the range around 55 nM |  |
| O=C(Nc1ccc(F)c(Cl)c1)N1CCc2[nH]nc(C3CCC3)c2C1 | in the range around 55 nM |  |
| O=C(Nc1cccc(Cl)c1)N1CCc2[nH]nc(C3CCC(O)C3)c2C1 (stereo not drawn) | in the range around 300 nM |  |
| CC1Cc2[nH]nc(C3CCCO3)c2CN1C(=O)Nc1ccc(F)c(C#N)c1 (stereo not drawn) | in the range around 300 nM | in the range around 300 nM |
| O=C(Nc1ccc(F)c(Br)c1)N1CCc2[nH]nc(C3CCC3)c2C1 | in the range around 55 nM |  |
| O=C(Nc1cccc(Cl)c1)N1CCc2[nH]nc(C3CCCO3)c2C1 (stereo not drawn) | in the range around 55 nM |  |
| O=C(Nc1ccnc(Br)c1F)N1CCc2[nH]nc(C3CCC3)c2C1 | in the range around 300 nM |  |
| CC1Cc2[nH]nc(C3CCCC3)c2CN1C(=O)Nc1ccc(F)c(C#N)c1 (stereo not drawn) | in the range around 55 nM | in the range around 55 nM |
| CC1Cc2[nH]nc(C3CCC3)c2CN1C(=O)Nc1cccc(C#N)c1F (stereo not drawn) | in the range around 300 nM | in the range around 300 nM |
| CC1Cc2[nH]nc(C3CCC3)c2CN1C(=O)Nc1cccc(Br)c1F (stereo not drawn) | in the range around 300 nM |  |
| CC(C)(C)c1n[nH]c2c1CN(C(=O)Nc1cccc(Cl)c1)CC2 | in the range around 300 nM |  |
| O=C(Nc1ccc(F)c(Cl)c1)N1CCc2[nH]nc(C34CCCC3C4)c2C1 (stereo not drawn) | in the range around 55 nM |  |
| O=C(Nc1cccc(Cl)c1)N1CCc2[nH]nc(C3=CCCCC3)c2C1 | in the range around 55 nM |  |
| Cc1cccc(NC(=O)N2CCc3[nH]nc(C4CCC4)c3C2)c1 | in the range around 300 nM |  |
| C=C(C)c1n[nH]c2c1CN(C(=O)Nc1cccc(C)c1)CC2 | in the range around 300 nM |  |
| CCC(F)(F)c1n[nH]c2c1CN(C(=O)Nc1cccc(Cl)c1)CC2 | in the range around 300 nM |  |
| CC1Cc2[nH]nc(C3CCCC3)c2CN1C(=O)Nc1cccc(Cl)c1 (stereo not drawn) | in the range around 55 nM | in the range around 55 nM |
| CC1(c2n[nH]c3c2CN(C(=O)Nc2cccc(Cl)c2)CC3)CC1 | in the range around 300 nM |  |

| SMILES | EC50 (HepG2.2.15) | EC50 |
| --- | --- | --- |
| CC(C)c1n[nH]c2c1CN(C(=O)Nc1cccc(Cl)c1)CC2 | in the range around 300 nM |  |
| O=C(Nc1ccc(F)c(F)c1)N1CCc2[nH]nc(C34CCCC3C4)c2C1 (stereo not drawn) | in the range around 300 nM |  |
| O=C(Nc1cccc(Br)c1F)N1CCc2[nH]nc(C3CCC3)c2C1 | in the range around 55 nM |  |
| CC1Cc2[nH]nc(C3CCCO3)c2CN1C(=O)Nc1ccnc(Br)c1F (stereo not drawn) | 750 nM |  |
| CC1Cc2[nH]nc(C3CCCO3)c2CN1C(=O)Nc1ccc(F)c(Cl)c1 (stereo not drawn) | in the range around 55 nM | in the range around 55 nM |
| O=C(Nc1cccc(Cl)c1)N1CCc2[nH]nc(C3CCCC3)c2C1 | in the range around 55 nM |  |
| Cc1cc(NC(=O)N2Cc3c(C4CCCC4)n[nH]c3CC2C)ccc1F (stereo not drawn) | in the range around 55 nM | in the range around 55 nM |
| CC1Cc2[nH]nc(C3CCC3)c2CN1C(=O)Nc1ccc(F)c(Br)c1 (stereo not drawn) | in the range around 55 nM |  |
| Cc1cc(NC(=O)N2CCc3[nH]nc(C4CCC4)c3C2)ccc1F | in the range around 55 nM |  |
| C=C(C)c1n[nH]c2c1CN(C(=O)Nc1cccc(Cl)c1)CC2 | in the range around 55 nM |  |
| CC1Cc2[nH]nc(C3CCC3)c2CN1C(=O)Nc1cccc(Br)c1 (stereo not drawn) | in the range around 55 nM |  |
| Cc1cc(NC(=O)N2Cc3c(C4CCC4)n[nH]c3CC2C)ccc1F (stereo not drawn) | in the range around 55 nM |  |
| O=C(Nc1ccc(F)c(F)c1)N1CCc2[nH]nc(C3CCC3)c2C1 | in the range around 300 nM |  |
| O=C(Nc1cccc(Cl)c1)N1CCc2[nH]nc(Br)c2C1 | > 10000 nM |  |
| CC(CO)c1n[nH]c2c1CN(C(=O)Nc1cccc(Cl)c1)CC2 (stereo not drawn) | > 10000 nM |  |
| CC1Cc2[nH]nc(C3CCCO3)c2CN1C(=O)Nc1cccc(Br)c1 (stereo not drawn) | in the range around 55 nM |  |
| CCC(C)(C)c1n[nH]c2c1CN(C(=O)Nc1cccc(Cl)c1)CC2 | in the range around 300 nM |  |
| Cc1cc(NC(=O)N2CCc3[nH]nc(C45CCCC4C5)c3C2)ccc1F (stereo not drawn) | in the range around 55 nM |  |
| N#Cc1cc(NC(=O)N2CCc3[nH]nc(C45CCCC4C5)c3C2)ccc1F (stereo not drawn) | in the range around 55 nM |  |
| CC1Cc2[nH]nc(C3CCCC3)c2CN1C(=O)Nc1ccc(F)c(Br)c1 (stereo not drawn) | in the range around 55 nM | in the range around 55 nM |
| C=C(C)c1n[nH]c2c1CN(C(=O)Nc1ccnc(Cl)c1F)CC2 | in the range around 300 nM |  |
| O=C(Nc1cccc(Cl)c1)N1CCc2[nH]nc(C3=CCCC3)c2C1 | in the range around 55 nM |  |
| CC1Cc2[nH]nc(C3CCCO3)c2CN1C(=O)Nc1ccc(F)c(Br)c1 (stereo not drawn) |  | in the range around 55 nM; also recorded: in the range around 300 nM |
| O=C(Nc1cccc(Cl)c1)N1CCc2[nH]nc(C34CCCC3C4)c2C1 (stereo not drawn) | in the range around 55 nM |  |
| O=C(Nc1ccnc(Br)c1F)N1CCc2[nH]nc(C34CCCC3C4)c2C1 (stereo not drawn) | in the range around 55 nM |  |
| O=C(Nc1cccc(Cl)c1)N1CCc2[nH]nc(C3=CC(F)CC3)c2C1 (stereo not drawn) | in the range around 55 nM |  |

| SMILES | EC50 (HepG2.2.15) | EC50 |
| --- | --- | --- |
| Cc1cccc(NC(=O)N2Cc3c(C4CCCC4)n[nH]c3CC2C)c1 (stereo not drawn) | in the range around 55 nM | in the range around 55 nM |
| CC1Cc2[nH]nc(C3CCCC3)c2CN1C(=O)Nc1ccc(F)c(Cl)c1 (stereo not drawn) | in the range around 55 nM | in the range around 55 nM |
| CC1(c2n[nH]c3c2CN(C(=O)Nc2cccc(Cl)c2)CC3)CCC1 | in the range around 55 nM |  |
| Cc1cc(NC(=O)N2Cc3c(C4CCCO4)n[nH]c3CC2C)ccc1F (stereo not drawn) |  | in the range around 55 nM; also recorded: in the range around 300 nM |
| CCCc1n[nH]c2c1CN(C(=O)Nc1cccc(Cl)c1)CC2 | in the range around 300 nM |  |
| O=C(Nc1cccc(Cl)c1)N1CCc2[nH]nc(N3CCCC3)c2C1 | in the range around 300 nM |  |
| O=C(Nc1cccc(Cl)c1)N1CCc2[nH]nc(C3=CCOCC3)c2C1 | in the range around 300 nM |  |
| C=C(C)c1n[nH]c2c1CN(C(=O)Nc1cccc(Br)c1F)CC2 | in the range around 55 nM |  |
| CC(C)(O)c1n[nH]c2c1CN(C(=O)Nc1cccc(Cl)c1)CC2 | > 10000 nM |  |
| CC1Cc2[nH]nc(C3CCCC3)c2CN1C(=O)Nc1cccc(Br)c1 (stereo not drawn) | in the range around 55 nM | in the range around 55 nM |
| O=C(Nc1cccc(Cl)c1)N1CCc2[nH]nc(C3CCC3)c2C1 | in the range around 55 nM |  |
| O=C(Nc1cccc(Cl)c1)N1CCc2[nH]nc(C3(C(F)(F)F)CC3)c2C1 | in the range around 300 nM |  |
| Cc1cccc(NC(=O)N2Cc3c(C4CCC4)n[nH]c3CC2C)c1 (stereo not drawn) | in the range around 55 nM |  |
| O=C(Nc1cccc(Cl)c1)N1CCc2[nH]nc(C3CC3)c2C1 | in the range around 300 nM |  |
| CC1Cc2[nH]nc(C3CCCC3)c2CN1C(=O)Nc1ccnc(Br)c1F (stereo not drawn) | in the range around 55 nM | in the range around 55 nM |
| Cc1cccc(NC(=O)N2Cc3c(C4CCCO4)n[nH]c3CC2C)c1 (stereo not drawn) | in the range around 300 nM |  |
| CC1Cc2[nH]nc(C3CCC3)c2CN1C(=O)Nc1ccnc(Br)c1F (stereo not drawn) | in the range around 300 nM | in the range around 300 nM |
| O=C(Nc1cccc(Br)c1F)N1CCc2[nH]nc(C34CCCC3C4)c2C1 (stereo not drawn) | in the range around 55 nM |  |
| CC1Cc2[nH]nc(C3CCC3)c2CN1C(=O)Nc1ccc(F)c(C#N)c1 (stereo not drawn) | in the range around 55 nM |  |
| O=C(Nc1cccc(Cl)c1)N1CCc2[nH]nc(C3CCOCC3)c2C1 | in the range around 300 nM |  |
| CCCC(F)(F)c1n[nH]c2c1CN(C(=O)Nc1cccc(Cl)c1)CC2 | in the range around 55 nM |  |
| N#Cc1cc(NC(=O)N2CCc3[nH]nc(C4CCC4)c3C2)ccc1F | in the range around 55 nM |  |
| O=C(Nc1cccc(Cl)c1)N1CCc2[nH]nc(C3CC=CC3)c2C1 | in the range around 55 nM |  |
| Cc1cccc(NC(=O)N2CCc3[nH]nc(C45CCCC4C5)c3C2)c1 (stereo not drawn) | in the range around 55 nM |  |
